In patent US8952018B2, “Pharmaceutical combination of MEK inhibitor and B-Raf inhibitors” (GlaxoSmithKline LLC, priority 2009, dated 2015):
Read-outs that look alike come from different tables or passages of the source. Blank lines part the entries; values can stand above or below the compound they belong to.

Legend:
[1] = tested on: 16R6-3; test: Cell growth inhibition assay (Cell Titer Glo) and combination data analysis; format: cell-based; conditions: Homo sapiens, A375P-F11, 72 h, Melanoma, resistant clone of A375 PF11, BRAF_V600E, 3 days
Experimental: (§6) Cell growth inhibition assay and combination data analysis—All cells were cultured for a minimum of 72 hours prior to cell plating. Cells were assayed in a 96-well tissue culture plate (NUNC 136102) of RPMI medium containing 10% FBS for all cells at 1,000 cells per well. Approximately 24 hours after plating, cells were exposed to ten, three-fold serial dilutions of compound or the combination of the two agents at a constant molar to molar ratio of 1:10 Compound A (DMSO solvate) to Compound B (free form) in RPMI media containing 10% FBS. Concentrations tested for Compound A were 1 μM-0.05 nM and for Compound B were 10 μM-0.5 nM. […] ATP levels were determined by adding Cell Titer Glo® (Promega) according to the manufacturer's protocol. Briefly, Cell Titer Glo® was added each plate, incubated for 30 minutes then luminescent signal was read on the SpectraMax L plate reader with a 0.5 sec integration time.

[2] = tested on: SW837; test: as above; format: cell-based; conditions: Homo sapiens, 72 h, Colon, KRAS_G12C, 3 days
[3] = tested on: 12R5-1; test: as above; format: cell-based; conditions: Homo sapiens, A375P-F11, 72 h, Melanoma, resistant clone of A375 PF11, BRAF_V600E, 3 days
Experimental: as §6

[4] = tested on: melanoma lines 16R5-2, 16R6-4 and 12R5-1; test: Cell growth inhibition assay, summary of Table 3; format: cell-based, human; conditions: 16R5-2, 16R6-4, 12R5-1; compound alone
Experimental: Cell lines and growth conditions—Human colon tumor lines, Colo-205, DLD-1, HCT-8, HT-29, LS-1034, NCI-H508, RKO, SW1417, SW1463, SW480 and SW837, and human melanoma line A375 were from ATCC. A375 PF11 was derived from A375.
Cell growth inhibition assay and combination data analysis—All cells were cultured for a minimum of 72 hours prior to cell plating. Cells were assayed in a 96-well tissue culture plate (NUNC 136102) of RPMI medium containing 10% FBS for all cells at 1,000 cells per well. […] ATP levels were determined by adding Cell Titer Glo® (Promega) according to the manufacturer's protocol. Briefly, Cell Titer Glo® was added each plate, incubated for 30 minutes then luminescent signal was read on the SpectraMax L plate reader with a 0.5 sec integration time.
Inhibition of cell growth was estimated after treatment with compound or combination of compounds for three days and comparing the signal to cells treated with vehicle (DMSO). Cell growth was calculated relative to vehicle (DMSO) treated control wells. […]
The combination effects on the response scale were quantified by Excess Over Highest Single Agent (EOHSA) based on the concept of nonlinear blending as described in detail by Peterson and Novick (2007) and Peterson (2010) [(2;3) [Peterson and Novick, 2007; Peterson, 2010]. […]

[5] = tested on: NCI-H508; test: Cell growth inhibition assay (Cell Titer Glo) and combination data analysis; format: cell-based; conditions: Homo sapiens, 72 h, Colon, BRAF_G596R, 3 days
[6] = tested on: 12R5-3; test: as above; format: cell-based; conditions: Homo sapiens, A375P-F11, 72 h, Melanoma, resistant clone of A375 PF11, BRAF_V600E, 3 days
Experimental: (§7) Cell growth inhibition assay and combination data analysis—All cells were cultured for a minimum of 72 hours prior to cell plating. Cells were assayed in a 96-well tissue culture plate (NUNC 136102) of RPMI medium containing 10% FBS for all cells at 1,000 cells per well. Approximately 24 hours after plating, cells were exposed to ten, three-fold serial dilutions of compound or the combination of the two agents at a constant molar to molar ratio of 1:10 Compound A (DMSO solvate) to Compound B (free form) in RPMI media containing 10% FBS. Concentrations tested for Compound A were 1 μM-0.05 nM and for Compound B were 10 μM-0.5 nM. Cells were incubated in the presence of compounds for 3 days. ATP levels were determined by adding Cell Titer Glo® (Promega) according to the manufacturer's protocol. Briefly, Cell Titer Glo® was added each plate, incubated for 30 minutes then luminescent signal was read on the SpectraMax L plate reader with a 0.5 sec integration time.

[7] = tested on: DLD1; test: as above; format: cell-based; conditions: Homo sapiens, DLD-1, 72 h, Colon, KRAS_G13D, 3 days
Excerpt: (§8) EOHSA values are defined as increases in improvement (here, in ‘percentage points’ (ppts) difference) produced by the combination over the best single agent at its component dose level for the combination. For single agent and combination treatments, cells were exposed to compounds at a fixed-dose-ratio, and dose response curves were fit to the experimental data and analyzed using regression models. […]

[8] = tested on: HT-29; test: as above; format: cell-based; conditions: Homo sapiens, 72 h, Colon, BRAF_V600E, 3 days, mean ± std
Excerpt: as §8

[9] = tested on: melanoma lines 12R8-3, 12R8-1, 12R5-3, and 16R6-3; test: Cell growth inhibition assay, summary of Table 3; format: cell-based; conditions: Homo sapiens; range over 12R8-3, 12R8-1, 12R5-3, 16R6-3; read-out: IC50, single agent
[10] = tested on: Colo-205; test: Cell growth inhibition assay (Cell Titer Glo) and combination data analysis; format: cell-based; conditions: Homo sapiens, 72 h, Colon, BRAF_V600E, 3 days, mean ± std
Excerpt: as §8

[11] = tested on: HCT-8; test: as above; format: cell-based; conditions: Homo sapiens, 72 h, Colon, KRAS_G13D, 3 days
[12] = tested on: 16R6-4; test: as above; format: cell-based; conditions: Homo sapiens, A375P-F11, 72 h, Melanoma, resistant clone of A375 PF11, BRAF_V600E, 3 days
Experimental: as §6

[13] = tested on: A375PF11; test: as above; format: cell-based; conditions: Homo sapiens, A375P-F11, 72 h, Melanoma, BRAF_V600E, 3 days, mean ± std
Experimental: as §7

[14] = tested on: SW1463; test: as above; format: cell-based; conditions: Homo sapiens, 72 h, Colon, KRAS_G12C, 3 days
Experimental: as §7

[15] = tested on: SW480; test: as above; format: cell-based; conditions: Homo sapiens, 72 h, Colon, KRAS_G12C, 3 days
[16] = tested on: SW1417; test: as above; format: cell-based; conditions: Homo sapiens, 72 h, Colon, BRAF_V600E, 3 days, mean ± std
Excerpt: as §8

[17] = tested on: LS-1034; test: as above; format: cell-based; conditions: Homo sapiens, 72 h, Colon, KRAS_A146T, 3 days
[18] = tested on: seven colon lines without BRAF V600E mutation (either with BRAF G596R or KRAS mutations); test: Cell growth inhibition assay, summary of Table 3; format: cell-based; conditions: Homo sapiens
Experimental: (§1) A375 PF11 was derived from A375.
(§2) Cell growth inhibition assay and combination data analysis—All cells were cultured for a minimum of 72 hours prior to cell plating. […] Cells were incubated in the presence of compounds for 3 days. ATP levels were determined by adding Cell Titer Glo® (Promega) according to the manufacturer's protocol. Briefly, Cell Titer Glo® was added each plate, incubated for 30 minutes then luminescent signal was read on the SpectraMax L plate reader with a 0.5 sec integration time.
(§3) Inhibition of cell growth was estimated after treatment with compound or combination of compounds for three days and comparing the signal to cells treated with vehicle (DMSO). Cell growth was calculated relative to vehicle (DMSO) treated control wells.
(§4) In general, a CI value <0.9, between 0.9 and 1.1, or >1.1 indicates synergy, additivity and antagonism, respectively. In general, the smaller the Cl number, the greater is the strength of synergy.
(§5) EOHSA values are defined as increases in improvement (here, in ‘percentage points’ (ppts) difference) produced by the combination over the best single agent at its component dose level for the combination. For single agent and combination treatments, cells were exposed to compounds at a fixed-dose-ratio, and dose response curves were fit to the experimental data and analyzed using regression models. At specified total dose levels of IC50 along the dose response curve, the dose combination (corresponding to IC50) was determined for making EOHSA statistical inferences.

[19] = tested on: four colon cell lines with BRAF V600E mutation; test: Cell growth inhibition assay, summary of Table 3; format: cell-based; conditions: Homo sapiens, read-out: IC50 values, single agent
Experimental: as §1, §2, §3, §4, §5

[20] = tested on: 12R8-3; test: Cell growth inhibition assay (Cell Titer Glo) and combination data analysis; format: cell-based; conditions: Homo sapiens, A375P-F11, 72 h, Melanoma, resistant clone of A375 PF11, BRAF_V600E, 3 days
Experimental: as §7

[21] = tested on: 16R5-2; test: as above; format: cell-based; conditions: Homo sapiens, A375P-F11, 72 h, Melanoma, resistant clone of A375 PF11, BRAF_V600E, 3 days
Experimental: as §6

[22] = tested on: RKO; test: as above; format: cell-based; conditions: Homo sapiens, 72 h, Colon, BRAF_V600E, 3 days, mean ± std
Excerpt: as §8

[23] = tested on: 12R8-1; test: as above; format: cell-based; conditions: Homo sapiens, A375P-F11, 72 h, Melanoma, resistant clone of A375 PF11, BRAF_V600E, 3 days
Experimental: as §7

[24] = mean ± std, read-out: IC50 Single Agent Compound A
[25] = read-out: IC50 Single Agent Compound A
[26] = read-out: IC50 Single Agent Compound B

- IC50 [2, 24]: 93 ± 63 nM
- IC50 [5, 24]: 10 ± 5 nM
- IC50 [7, 24]: 557 ± 393 nM
- IC50 [8, 25]: 1 ± 1 nM
- IC50 [9]: 58 to 109 nM
- IC50 [10, 25]: 1 nM
- IC50 [11, 24]: 50 ± 11 nM
- IC50 [13, 25]: 1 nM
- IC50 [14, 24]: 5 ± 4 nM
- IC50 [15, 24]: 42 ± 3 nM
- IC50 [16, 25]: 3 ± 2 nM
Structure (SMILES): CC(=O)Nc1cccc(-n2c(=O)n(C3CC3)c(=O)c3c(Nc4ccc(I)cc4F)n(C)c(=O)c(C)c32)c1 [Compound A, N-{3-[3-cyclopropyl-5-(2-fluoro-4-iodo-phenylamino)6,8-dimethyl-2,4,7-trioxo-3,4,6,7-tetrahydro-2H-pyrido[4,3-d]pyrimidin-1-yl]phenyl}acetamide]
- IC50 [1, 24]: 109 ± 22 nM
- IC50 [3, 25]: > 1000 nM
- sensitivity to single agent [4]: resistant or insensitive
- IC50 [6, 24]: 92 ± 52 nM
- IC50 [12, 25]: > 1000 nM
- IC50 [17, 24]: 11 ± 7 nM
- IC50 ([18]; six out of the seven colon lines without BRAF V600E mutation, read-out: IC50s, single agent): 1 to 93 nM
- IC50 ([19]; range over the four colon cell lines with BRAF V600E mutation): 1 to 25 nM
- IC50 [20, 24]: 59 ± 37 nM
- IC50 [21, 25]: > 1000 nM
- IC50 [22, 25]: 25 ± 7 nM
- IC50 [23, 24]: 58 ± 30 nM

Structure (SMILES): CC(C)(C)c1nc(-c2cccc(NS(=O)(=O)c3c(F)cccc3F)c2F)c(-c2ccnc(N)n2)s1 [Compound B, N-{3-[5-(2-Amino-4-pyrimidinyl)-2-(1,1-dimethylethyl)-1,3-thiazol-4-yl]-2-fluorophenyl}-2,6-difluorobenzenesulfonamide]
- IC50 [1, 26]: > 10000 nM
- IC50 [2, 26]: > 10000 nM
- IC50 [3, 26]: > 10000 nM
- sensitivity to single agent [4]: resistant or insensitive
- IC50 [5, 26]: > 10000 nM
- IC50 [6, 26]: > 10000 nM
- IC50 [7, 26]: > 10000 nM
- IC50 [8, 26]: 22 ± 22 nM
- IC50 [9]: > 10000 nM
- IC50 [10, 26]: 18 ± 13 nM
- IC50 [11, 26]: > 10000 nM
- IC50 [12, 26]: > 10000 nM
- IC50 [13, 26]: 12 nM
- IC50 [14, 26]: > 10000 nM
- IC50 [15, 26]: > 10000 nM
- IC50 [16, 26]: 203 ± 15 nM
- IC50 [17, 26]: > 10000 nM
- IC50 ([18]; read-out: IC50, single agent): > 10000 nM
- IC50 [19]: 18 to 5650 nM
- IC50 [20, 26]: > 10000 nM
- IC50 [21, 26]: > 10000 nM
- IC50 [22, 26]: 5650 ± 3900 nM
- IC50 [23, 26]: > 10000 nM
